Results as given in PubChem BioAssay (NCI).
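Where inhibition never reached the appropriate level, the endpoint shown equals the highest concentration tested. Otherwise, values were interpolated linearly from a five-concentration, 48-hour dose response in 96-well plates. TGI is the concentration that stops growth completely.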

Key:
Experiment in all cases: NCI tumour cell line growth inhibition, 48 h
[1] = system: DMS 114 small cell lung
[2] = system: DMS 273 small cell lung
[3] = system: HOP-18 NSCLC
[4] = system: M19-MEL melanoma
[5] = system: P388 leukemia
[6] = system: SN12K1 renal
[7] = system: XF 498 CNS
[8] = system: LXFL 529 NSCLC
[9] = system: SNB-78 CNS
[10] = system: P388/ADR leukemia
[11] = system: RXF-631 renal

COc1cc(N=Nc2cccc(S(=O)(=O)O)c2)c(C)cc1N=Nc1ccc(/C=C/c2ccc(N=[N+]([O-])c3ccc(/C=C/c4ccc(N=Nc5cc(C)c(N=Nc6cccc(S(=O)(=O)O)c6)cc5OC)cc4)c(S(=O)(=O)O)c3)cc2S(=O)(=O)O)cc1
TGI [1]: > 100 µM
TGI [2]: > 100 µM
TGI [3]: > 100 µM
TGI [4]: > 100 µM
TGI [5]: > 100 µM
TGI [6]: > 100 µM
TGI [7]: > 100 µM

O=S1(=O)NNC(=NCc2ccc(F)cc2)c2ccccc21
TGI [2]: > 100 µM
TGI [8]: > 100 µM
TGI [4]: > 100 µM
TGI [9]: > 100 µM
TGI [7]: > 100 µM

C=C1C(=O)O[C@H]2C1[C@H](OC(=O)/C(C)=C\COC(C)=O)C[C@]1(CO1)[C@@H]1[C@H](O)[C@H]3O[C@@]3(C)[C@@H]12 (some centres not stated)
TGI [1]: 42.6 µM
TGI [2]: > 63.2 µM
TGI [3]: 41.4 µM
TGI [4]: 34.4 µM
TGI [5]: 18.4 µM
TGI [10]: 30 µM
TGI [6]: > 55.9 µM
TGI [9]: > 73.5 µM
TGI [7]: 38.4 µM

O=CNc1cccc2c3c([nH]c12)CCCCCC3
TGI [1]: > 100 µM
TGI [2]: > 100 µM
TGI [3]: > 100 µM
TGI [4]: > 100 µM
TGI [5]: > 100 µM
TGI [10]: > 100 µM
TGI [6]: > 100 µM
TGI [9]: > 100 µM
TGI [7]: > 100 µM

CCOC(=O)C1C(c2cc(OC)c(O)c(OC)c2)c2cc3c(cc2OC1(C)O)OCO3 (configuration not stated)
TGI [2]: > 100 µM
TGI [3]: > 100 µM
TGI [4]: > 100 µM
TGI [11]: > 100 µM
TGI [9]: > 100 µM
TGI [7]: > 100 µM

Cc1cc(NS(=O)(=O)c2ccc(Nc3c4ccccc4nc4c(C(=O)NCCN(C)C)ccc(Cl)c34)cc2)no1
TGI [1]: 13.9 µM
TGI [8]: 19.2 µM
TGI [4]: 16.9 µM
TGI [11]: 20.9 µM
TGI [9]: 44 µM
TGI [7]: 26.7 µM
